Measurements as given in article PMC3294087 (Journal of Immunology (Baltimore, Md. : 1950), 2012).
Like-named read-outs stand apart in the source and are kept apart here.

Assays:
[1] = test system: Candida albicans (Berkhout anamorph, ATCC # MYA-3573); format: cell-based; conditions: mean of three experiments
[2] = test system: Staphylococcus aureus (Wood 46 strain; ATCC# 10832); format: cell-based; conditions: 30 min at 37°C in PBS, mean of three experiments
[3] = test system: Phil82 strain of IAV (A/Phillipines/82(H3N2)); experiment: Fluorescent focus assay on A549 cells; format: cell-based, influenza A virus; conditions: mean±SEM of 4 experiments

| Molecule | C. albicans % of Control Colonies ([1]; 1.25 μg/ml) | C. albicans % of Control Colonies ([1]; 2.5 μg/ml) | C. albicans % of Control Colonies ([1]; 20 μg/ml) | S. aureus % of Control Colonies ([2]; 1.25 μg/ml) | S. aureus % of Control Colonies ([2]; 2.5 μg/ml) | S. aureus % of Control Colonies ([2]; 20 μg/ml) | Neutralizing activity (infectious foci, control = 100%) ([3]; SP-D 5 ng/ml alone) | Neutralizing activity (infectious foci, control = 100%) ([3]; SP-D 10 ng/ml alone) |
| --- | --- | --- | --- | --- | --- | --- | --- | --- |
| HNP1: human neutrophil α-defensin | 81±5 % | 61±4 % | 61±2 % | 202±5% | 151±4% | 71±1 % |  |  |
| SP-D: Recombinant human pulmonary surfactant protein D, dodecameric fraction, produced in CHO-K1 cells (protein, UniProt P35247 21-375, looked up, dodecameric fraction) Pulmonary …: AEMKTYSHRTMPSACTLVMCSSVESGLPGRDGRDGREGPRGEKGDPGLPGAAGQAGMPGQAGPVGPKGDNGSVGEPGPKGDTGPSGPPGPPGVPGPAGREGPLGKQGNIGPQGKPGPKGEAGPKGEVGAPGMQGSAGARGLAGPKGERGVPGERGVPGNTGAAGSAGAMGPQGSPGARGPPGLKGDKGIPGDKGAKGESGLPDVASLRQQVEALQGQVQHLQAAFSQYKKVELFPNGQSVGEKIFKTAGFVKPFTEAQLLCTQAGGQLASPRSAAENAALQQLVVAKNEAAFLSMTDSKTEGKFTYPTGESLVYSNWAPGEPNDDGGSEDCVEIFTNGKWNDRACGEKRLVVCEF |  |  |  |  |  |  | 74±10% | 50±6% |
